Results taken from PubChem BioAssay (NCI).
“And” between values parts separate entries of the source, which are not always exact repeats. Equal entries are not always repeated.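 Tested at 5 concentrations; 48 h exposure; 96-well plates; endpoints linearly interpolated, else capped at highest concentration. Abbreviation: GI50, concentration required for 50% inhibition of growth. Definition used: TGI = concentration required for complete inhibition of growth.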

What was measured:
Test in all cases: NCI anticancer screen, dose series, 48 h
[1] = system: KM12 colon
[2] = system: UO-31 renal
[3] = system: SK-MEL-5 melanoma
[4] = system: HT29 colon
[5] = system: HCC-2998 colon
[6] = system: SNB-19 CNS
[7] = system: RXF 393 renal
[8] = system: CCRF-CEM leukemia
[9] = system: EKVX NSCLC
[10] = system: IGROV1 ovarian

COc1ccc(OC(C)C(=O)O)c2c(=O)ccccc12 (stereo unspecified)
TGI [1]: > 100 µM | TGI [2]: > 100 µM | TGI [3]: > 100 µM | TGI [4]: > 100 µM | TGI [5]: > 100 µM | TGI [6]: > 100 µM | TGI [7]: > 100 µM | TGI [8]: > 100 µM | TGI [9]: > 100 µM | TGI [10]: > 100 µM

CC(=O)[CH-]C(=O)c1ccccc1.CC(=O)[CH-]C(=O)c1ccccc1.[O-]c1ccc2c(c1)OCO2.[O-]c1ccc2c(c1)OCO2.[Ti+4]
GI50 [1]: 16.2 µM | TGI [1]: 38.2 µM | GI50 [2]: 35.9 µM | TGI [2]: 94.3 µM | GI50 [3]: 29.1 µM | TGI [3]: 78.6 µM | GI50 [4]: 26.8 µM | TGI [4]: > 100 µM | GI50 [5]: 24.6 µM | TGI [5]: 61.6 µM | GI50 [6]: 20.8 µM | TGI [6]: 69.7 µM | GI50 [8]: 3.66 µM | TGI [8]: 30.3 µM | GI50 [9]: 25.8 µM | TGI [9]: 72.9 µM | GI50 [10]: 34.5 µM | TGI [10]: > 100 µM

CCC(CO)Nc1nc2c(c(=O)n(C)c(=O)n2C)n1CCO (stereo unspecified)
TGI [1]: > 100 µM | TGI [2]: > 100 µM | TGI [3]: > 100 µM | TGI [4]: > 100 µM | TGI [5]: > 100 µM | TGI [6]: > 100 µM | TGI [7]: > 100 µM | TGI [9]: > 100 µM | TGI [10]: > 100 µM

Nc1ccc(/C=C/c2ccc3cccnc3c2)cc1
TGI [1]: > 100 µM | TGI [2]: > 100 µM | TGI [3]: > 100 µM | TGI [4]: > 100 µM | TGI [5]: > 100 µM | TGI [6]: > 100 µM | TGI [7]: > 100 µM | TGI [8]: > 100 µM | TGI [9]: > 100 µM

CC(SCc1ccccc1)C(=O)O (stereo unspecified)
TGI [1]: > 100 µM | TGI [2]: > 100 µM | TGI [3]: > 100 µM | TGI [4]: > 100 µM | TGI [6]: > 100 µM | TGI [7]: > 100 µM | TGI [8]: > 100 µM | TGI [9]: > 100 µM | TGI [10]: > 100 µM

CCCCN(CCCC)CC(C(C)=O)C(c1ccccc1)c1c(O)c2ccccc2oc1=O (stereo unspecified)
TGI [1]: > 100 µM | TGI [3]: > 100 µM | TGI [4]: > 100 µM | TGI [5]: > 100 µM | TGI [6]: > 100 µM | TGI [7]: > 100 µM | TGI [8]: > 100 µM | TGI [9]: > 100 µM | TGI [10]: > 100 µM

C1=CCCC=CCC1.C[PH+](C)C.C[PH+](C)C.C[PH+](C)C.[Cl-].[Ir]
GI50 [1]: 43.6 µM | TGI [1]: > 100 µM | GI50 [2]: > 100 µM | TGI [2]: > 100 µM | GI50 [3]: 70 µM | TGI [3]: > 100 µM | GI50 [4]: 47.6 µM | TGI [4]: > 100 µM | GI50 [5]: 91.4 µM | TGI [5]: > 100 µM | GI50 [7]: > 100 µM | TGI [7]: > 100 µM | GI50 [8]: 19.4 µM | TGI [8]: 71.7 µM | GI50 [9]: 76.1 µM | TGI [9]: > 100 µM | GI50 [10]: 36.3 µM | TGI [10]: > 100 µM

O=C1N=C(Nc2nc(-c3csc(NC4=NC(=O)/C(=C\c5ccccc5)S4)n3)cs2)S/C1=C/c1ccccc1
GI50 [1]: 11.2 µM | TGI [1]: > 50 µM | GI50 [2]: 17.5 µM | TGI [2]: > 50 µM | GI50 [3]: 5.87 µM | TGI [3]: 33.4 µM | GI50 [4]: 25.7 µM | TGI [4]: > 50 µM | GI50 [5]: 8.2 µM | TGI [5]: 45.5 µM | GI50 [6]: 49.1 µM | TGI [6]: > 50 µM | GI50 [7]: 18.5 µM | TGI [7]: > 50 µM | GI50 [9]: 12.7 µM | TGI [9]: > 50 µM | GI50 [10]: 36.6 µM | TGI [10]: > 50 µM

O=c1c2cc3ccccc3n2c(=O)c2cc3ccccc3n12
TGI [1]: > 100 µM | TGI [2]: > 100 µM | TGI [3]: > 100 µM | TGI [4]: > 100 µM | TGI [5]: > 100 µM | TGI [6]: > 100 µM | TGI [7]: > 100 µM | TGI [8]: > 100 µM | TGI [9]: > 100 µM

O=C(O)c1ccc(SSc2ccc(C(=O)O)cn2)nc1
TGI [1]: > 100 µM | TGI [3]: > 100 µM | TGI [4]: > 100 µM | TGI [6]: > 100 µM | TGI [7]: > 100 µM | TGI [8]: > 100 µM | TGI [9]: > 100 µM | TGI [10]: > 100 µM

COC(=O)[C@H](Cc1cn(C)cn1)NC(=O)[C@H](Cc1ccccc1)NC(=O)Nc1cc(C(F)(F)F)cc(C(F)(F)F)c1
GI50 [1]: 13.5 µM | TGI [1]: 28.2 µM | GI50 [2]: 16.6 µM | TGI [2]: 30.5 µM | GI50 [3]: 16.2 µM | TGI [3]: 30.7 µM | GI50 [4]: 4.97 µM and 14.9 µM | TGI [4]: 29.8 µM | GI50 [5]: 3.86 µM | GI50 [6]: 14.2 µM | TGI [6]: 28.3 µM | GI50 [8]: 3.9 µM and 8.86 µM | TGI [8]: 24.8 µM | GI50 [10]: 18.5 µM | TGI [10]: 37.2 µM

C[C@]12C[C@H](O)[C@H]3[C@@H](CCC4=CC(=O)CC[C@@]43C)[C@@H]1CC[C@@H]2c1csc(-c2ccccc2)n1
TGI [1]: > 100 µM | TGI [2]: > 46.2 µM | TGI [4]: > 100 µM | TGI [6]: > 100 µM | TGI [7]: > 100 µM | TGI [9]: > 100 µM | TGI [10]: > 100 µM

NC(Cc1ccccc1)c1nccs1 (stereo unspecified)
TGI [1]: > 100 µM | TGI [2]: > 100 µM | TGI [3]: > 100 µM | TGI [4]: > 100 µM | TGI [5]: > 100 µM | TGI [6]: > 100 µM | TGI [8]: > 100 µM | TGI [9]: > 100 µM | TGI [10]: > 100 µM

CCN(Cc1c(F)cccc1Cl)c1ccc(CO)c(Cl)c1
GI50 [1]: 11.8 µM | TGI [1]: 25.8 µM | GI50 [2]: 12.9 µM | TGI [2]: 26.1 µM | GI50 [3]: 0.5 µM | TGI [3]: 20.1 µM | GI50 [4]: 0.668 µM | TGI [4]: 16 µM | GI50 [5]: 3.27 µM | TGI [5]: 18.3 µM | GI50 [6]: 15.7 µM | TGI [6]: 40.1 µM | GI50 [7]: 6.31 µM | TGI [7]: 27 µM | GI50 [8]: 16.2 µM | TGI [8]: 39 µM

COc1cc(/C=C2\CCCC3=C2N=C2SC(C)=NN2C3c2cc(OC)c(OC)c(OC)c2)cc(OC)c1OC (stereo unspecified)
GI50 [1]: 0.322 µM | TGI [1]: > 100 µM

CO/N=C(\COc1ccc2oc(-c3ccccc3)cc(=O)c2c1)c1ccc(F)cc1
GI50 [1]: 46.9 µM | TGI [1]: > 100 µM | GI50 [2]: 18.1 µM | TGI [2]: 42.1 µM | GI50 [3]: 31.3 µM | TGI [3]: 93.5 µM | GI50 [4]: 31.4 µM | TGI [4]: > 100 µM | GI50 [5]: 23.6 µM | TGI [5]: 54.4 µM | GI50 [7]: 15.8 µM | TGI [7]: 44.7 µM | GI50 [8]: > 100 µM | TGI [8]: > 100 µM | GI50 [9]: 35.9 µM | TGI [9]: > 100 µM | GI50 [10]: 15.2 µM | TGI [10]: 35.9 µM

O=C1NC2C(O)CCCCC2C12CCCCC2 (stereo unspecified)
TGI [1]: > 100 µM | TGI [2]: > 100 µM | TGI [3]: > 100 µM | TGI [4]: > 100 µM | TGI [6]: > 100 µM | TGI [7]: > 100 µM | TGI [9]: > 100 µM | TGI [10]: > 100 µM

COC(=O)N/N=C(\C)CC(=O)Nc1ccc(Cl)cc1
TGI [1]: > 100 µM | TGI [2]: > 100 µM | TGI [3]: > 100 µM | TGI [4]: > 100 µM | TGI [5]: > 100 µM | TGI [7]: > 100 µM | TGI [8]: > 100 µM | TGI [9]: > 100 µM | TGI [10]: > 100 µM
